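Where inhibition never reached the appropriate level, the endpoint shown equals the highest concentration tested. Otherwise, values were interpolated linearly from a five-concentration, 48-hour dose response in 96-well plates. Definition used: TGI = concentration required for complete inhibition of growth.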
Columns and labels:
Test in all cases: growth of human tumour cells (NCI), 48 h
[1] = test system: ACHN renal
[2] = test system: SK-OV-3 ovarian
[3] = test system: HCT-116 colon
[4] = test system: K-562 leukemia
[5] = test system: SNB-19 CNS
[6] = test system: SF-268 CNS
[7] = test system: HT29 colon
[8] = test system: BT-549 breast
[9] = test system: HCC-2998 colon
[10] = test system: HOP-62 NSCLC
[11] = test system: KM12 colon
[12] = test system: IGROV1 ovarian
[13] = test system: MDA-N

## Cc1c2c(n(CCc3ccccc3)c1C)NN=C(C#N)S2(=O)=O
[1]
  TGI: > 100 µM
[2]
  TGI: > 100 µM
[3]
  TGI: > 100 µM
[4]
  TGI: > 100 µM
[5]
  TGI: > 100 µM
[6]
  TGI: > 100 µM
[7]
  TGI: > 100 µM
[8]
  TGI: > 100 µM
[9]
  TGI: > 100 µM
[10]
  TGI: > 100 µM
[11]
  TGI: > 100 µM
[12]
  TGI: > 100 µM
[13]
  TGI: > 100 µM

## O=C1CC2(CCC(O)(c3ccc(Cl)cc3)C(C(=O)c3ccc(Cl)cc3)C2)C(=O)c2ccccc2N1 (stereo unspecified)
[1]
  TGI: 25.4 µM
[2]
  TGI: 35.1 µM
[3]
  TGI: > 100 µM
[4]
  TGI: > 100 µM
[5]
  TGI: 6.71 µM
[6]
  TGI: 17 µM
[7]
  TGI: > 50 µM
[8]
  TGI: 49.9 µM
[9]
  TGI: > 100 µM
[10]
  TGI: > 100 µM
[11]
  TGI: > 100 µM
[12]
  TGI: > 52.1 µM
[13]
  TGI: 98.1 µM

## O=[N+]([O-])C(=C(N1CCOCC1)N1CCOCC1)/C(Cl)=C(\Cl)[N+](=O)[O-]
[1]
  TGI: 14.6 µM
[2]
  TGI: > 100 µM
[3]
  TGI: 4.28 µM
[4]
  TGI: > 100 µM
[5]
  TGI: > 65.6 µM
[6]
  TGI: 22.9 µM
[7]
  TGI: 8.26 µM
[8]
  TGI: 13.3 µM
[9]
  TGI: 39.6 µM
[10]
  TGI: 29.8 µM
[11]
  TGI: 30.9 µM
[12]
  TGI: 2.78 µM
[13]
  TGI: 25.1 µM

## COC(=N)C12C(N)=NC(OC)(OC)C1(C#N)C21C(=O)N(c2ccccc2)N=C1C (stereo unspecified)
[1]
  TGI: > 100 µM
[2]
  TGI: > 100 µM
[3]
  TGI: > 100 µM
[4]
  TGI: > 100 µM
[5]
  TGI: > 100 µM
[6]
  TGI: > 100 µM
[7]
  TGI: > 100 µM
[8]
  TGI: > 100 µM
[9]
  TGI: > 100 µM
[10]
  TGI: > 100 µM
[11]
  TGI: > 100 µM
[12]
  TGI: > 100 µM
[13]
  TGI: > 100 µM

## O=c1c2cccnc2nc2ccc3c[nH][nH]c3c12
[1]
  TGI: > 10 µM
[2]
  TGI: > 10 µM
[3]
  TGI: > 10 µM
[4]
  TGI: > 10 µM
[5]
  TGI: > 10 µM
[6]
  TGI: > 10 µM
[7]
  TGI: > 10 µM
[8]
  TGI: > 10 µM
[9]
  TGI: > 10 µM
[10]
  TGI: > 10 µM
[11]
  TGI: > 10 µM
[12]
  TGI: > 10 µM
[13]
  TGI: > 10 µM

## [N-]=[N+]=Nc1ccc2c(c1)Sc1ccccc1N2CCCCCl
[1]
  TGI: > 100 µM
[2]
  TGI: > 100 µM
[3]
  TGI: > 100 µM
[4]
  TGI: > 100 µM
[5]
  TGI: > 100 µM
[6]
  TGI: > 100 µM
[7]
  TGI: > 100 µM
[8]
  TGI: > 100 µM
[9]
  TGI: > 100 µM
[10]
  TGI: > 100 µM
[11]
  TGI: > 100 µM
[12]
  TGI: > 100 µM
[13]
  TGI: > 100 µM

## CN(C)CCNc1ccc2c(=O)n(CCN(C)C)c(=O)n3c4ccc(N)cc4c(=O)c1c23
[1]
  TGI: 0.734 µM
[2]
  TGI: 2.7 µM
[3]
  TGI: 0.166 µM
[4]
  TGI: 0.0358 µM
[5]
  TGI: 0.788 µM
[6]
  TGI: 1.25 µM
[7]
  TGI: 0.46 µM
[8]
  TGI: 1.87 µM
[9]
  TGI: 0.809 µM
[10]
  TGI: 1.15 µM
[11]
  TGI: 7.52 µM
[12]
  TGI: 0.534 µM
[13]
  TGI: 0.219 µM

## c1ccc(CCN(Cc2nc3ccccc3[nH]2)Cc2nc3ccccc3[nH]2)cc1
[1]
  TGI: 22.4 µM
[2]
  TGI: 70 µM
[3]
  TGI: 17 µM
[4]
  TGI: 12.9 µM
[5]
  TGI: > 31.6 µM
[6]
  TGI: 33.6 µM
[7]
  TGI: > 63.5 µM
[8]
  TGI: 27.2 µM
[9]
  TGI: 33.6 µM
[10]
  TGI: 24.9 µM
[11]
  TGI: 27.3 µM
[12]
  TGI: 17.8 µM
[13]
  TGI: 36.3 µM

## O=C(Nc1nc(C23CC4CC(CC(C4)C2)C3)cs1)c1cc2cc(Br)cc(Br)c2oc1=O
[1]
  TGI: > 100 µM
[2]
  TGI: > 100 µM
[3]
  TGI: > 100 µM
[4]
  TGI: > 100 µM
[5]
  TGI: > 100 µM
[6]
  TGI: > 100 µM
[7]
  TGI: > 100 µM
[8]
  TGI: > 100 µM
[9]
  TGI: > 100 µM
[10]
  TGI: > 100 µM
[11]
  TGI: > 100 µM
[12]
  TGI: > 100 µM
[13]
  TGI: > 100 µM

## CC1(C)C(=O)N=C(N)N1C(=O)OCc1ccccc1
[1]
  TGI: > 100 µM
[2]
  TGI: > 100 µM
[3]
  TGI: > 100 µM
[4]
  TGI: > 100 µM
[5]
  TGI: > 100 µM
[6]
  TGI: > 100 µM
[7]
  TGI: > 100 µM
[8]
  TGI: > 100 µM
[9]
  TGI: > 100 µM
[10]
  TGI: > 100 µM
[11]
  TGI: > 100 µM
[12]
  TGI: > 100 µM
[13]
  TGI: > 100 µM

## NC1CC(=O)c2cc(Br)sc21 (stereo unspecified)
[1]
  TGI: > 100 µM
[2]
  TGI: > 100 µM
[3]
  TGI: > 100 µM
[4]
  TGI: > 100 µM
[5]
  TGI: > 100 µM
[6]
  TGI: > 100 µM
[7]
  TGI: > 100 µM
[8]
  TGI: > 100 µM
[9]
  TGI: > 100 µM
[10]
  TGI: > 100 µM
[11]
  TGI: > 100 µM
[12]
  TGI: > 100 µM
[13]
  TGI: > 100 µM

## CCCCc1c2c(nc3c1CCC/C3=C\c1ccccc1)C(=O)C(CN(C)C)CC2 (stereo unspecified)
[1]
  TGI: 29.5 µM
[2]
  TGI: 40.6 µM
[3]
  TGI: 32.6 µM
[4]
  TGI: 21.5 µM
[5]
  TGI: 32.6 µM
[6]
  TGI: 35.6 µM
[7]
  TGI: 28.9 µM
[8]
  TGI: 19.8 µM
[9]
  TGI: 54.7 µM
[10]
  TGI: 34.1 µM
[11]
  TGI: 33.6 µM
[12]
  TGI: 36.9 µM
[13]
  TGI: 21.1 µM

## COc1cc2cc(C(=O)N3CC(CCl)c4ccc(NCCN)cc43)[nH]c2c(OC)c1OC (stereo unspecified)
[1]
  TGI: 0.768 µM
[2]
  TGI: 1.16 µM
[3]
  TGI: > 32.7 µM
[4]
  TGI: 0.572 µM
[5]
  TGI: 3.13 µM
[6]
  TGI: 1.29 µM
[7]
  TGI: 11.1 µM
[8]
  TGI: 1.94 µM
[9]
  TGI: 0.709 µM
[10]
  TGI: 0.645 µM
[11]
  TGI: 1.07 µM
[12]
  TGI: 0.375 µM
[13]
  TGI: 0.432 µM

## COC(=O)[C@H](Cc1ccccc1)NC(=O)N1CCN(C(=O)N[C@@H](Cc2ccccc2)C(=O)OC)CCN(C(=O)N[C@@H](Cc2ccccc2)C(=O)OC)CC1
[1]
  TGI: > 100 µM
[2]
  TGI: > 100 µM
[3]
  TGI: > 100 µM
[4]
  TGI: > 100 µM
[5]
  TGI: > 100 µM
[6]
  TGI: > 100 µM
[7]
  TGI: > 100 µM
[8]
  TGI: > 100 µM
[9]
  TGI: > 100 µM
[10]
  TGI: > 100 µM
[11]
  TGI: > 100 µM
[12]
  TGI: > 100 µM
[13]
  TGI: > 100 µM

## Cc1ccccc1N(C)S(=O)(=O)c1ccccc1[N+](=O)[O-]
[1]
  TGI: > 100 µM
[2]
  TGI: > 100 µM
[3]
  TGI: > 100 µM
[4]
  TGI: > 100 µM
[5]
  TGI: > 100 µM
[6]
  TGI: > 100 µM
[7]
  TGI: > 100 µM
[8]
  TGI: > 100 µM
[9]
  TGI: > 100 µM
[10]
  TGI: > 100 µM
[11]
  TGI: > 100 µM
[12]
  TGI: > 100 µM
[13]
  TGI: > 100 µM

## O=S1(=O)CCN(Cc2ccccc2)/C1=N\S(=O)(=O)c1ccc(Cl)cc1
[1]
  TGI: 33.1 µM
[2]
  TGI: > 100 µM
[3]
  TGI: 33 µM
[4]
  TGI: > 100 µM
[5]
  TGI: > 100 µM
[6]
  TGI: 31.4 µM
[7]
  TGI: 32.6 µM
[8]
  TGI: 31.1 µM
[9]
  TGI: 34.5 µM
[10]
  TGI: > 100 µM
[11]
  TGI: > 100 µM
[12]
  TGI: 32.5 µM
[13]
  TGI: 32.2 µM

## CCCCCCCCCCCCCCCCP(=O)(O)OP(=O)(O)OCC1OC(n2cnc3c(N)ncnc32)C(O)C1O (stereo unspecified)
[1]
  TGI: 62.1 µM
[2]
  TGI: > 100 µM
[3]
  TGI: 47.3 µM
[4]
  TGI: > 100 µM
[5]
  TGI: 42 µM
[6]
  TGI: 95.2 µM
[7]
  TGI: 43.8 µM
[8]
  TGI: > 100 µM
[9]
  TGI: 44.8 µM
[10]
  TGI: 37.3 µM
[11]
  TGI: 53.8 µM
[12]
  TGI: 35.9 µM
[13]
  TGI: > 100 µM

Source: PubChem BioAssay (NCI)
